From the supplement of paper PMC8617591

Tests used:
[1] = test system: Mycobacterium tuberculosis Erdman (autoluminescent); assay: Einf, fitted maximum growth inhibition of combination (fraction); higher = stronger maximal inhibition
Protocol: (§1)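 DiaMOND equipotent two-drug combination dose responses against autoluminescent M. tuberculosis Erdman in 8 in vitro models. Read-out is OD600, or luminescence for the intracellular and dormancy models, normalised to untreated wells. Hill-fit Einf, AUC25 and GRinf are potency metrics; FIC50 and FIC90 are Loewe-additivity fractional inhibitory concentrations, given as log2 (negative = synergy). Replicates are averaged.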

[2] = test system: Mycobacterium tuberculosis Erdman (autoluminescent); assay: FIC50 (Loewe) at 50% inhibition (log2); higher = more antagonistic
Protocol: as §1

[3] = test system: Mycobacterium tuberculosis Erdman (autoluminescent); assay: FIC90 (Loewe) at 90% inhibition (log2); higher = more antagonistic
Protocol: as §1

[4] = test system: Mycobacterium tuberculosis Erdman (autoluminescent); assay: GRinf, maximum normalised growth rate inhibition (unitless (-1 to 1)); higher = less effect (negative = killing)
Protocol: as §1

[5] = test system: Mycobacterium tuberculosis Erdman (autoluminescent); assay: AUC25, normalised area under dose response up to IC25 (fraction (0-1)); higher = more potent at low dose
Protocol: as §1

CC(=O)NC[C@H]1CN(c2ccc(N3CCOCC3)c(F)c2)C(=O)O1 [linezolid] + CO[C@H]1/C=C/O[C@@]2(C)Oc3c(C)c(O)c4c(O)c(c(/C=N/N5CCN(C6CCCC6)CC5)c(O)c4c3C2=O)NC(=O)/C(C)=C\C=C\[C@H](C)[C@H](O)[C@@H](C)[C@@H](O)[C@@H](C)[C@H](OC(C)=O)[C@@H]1C [rifapentine]
Conditions | AUC25, [5] | Einf, [1] | FIC50, [2] | FIC90, [3] | GRinf, [4]
in vitro model: acidic pH 5.7, time point: constant (~7 days, model-specific) | 0.0817 | 0.89 | 0.435 | – | -0.248
in vitro model: acidic pH 5.7, time point: terminal (~4-5 doublings, model-specific) | 0.0632 | 0.979 | 0.277 | 0.184 | -0.205
in vitro model: intracellular J774, time point: constant = terminal | – | 0.948 | – | -0.637 | -0.209

Conditions | AUC25, [5] | Einf, [1] | FIC50, [2] | FIC90, [3] | GRinf, [4]
in vitro model: butyrate, time point: constant (~7 days, model-specific) | 0.0729 | 0.876 | 0.227 | -0.305 | 0.113
in vitro model: butyrate, time point: terminal (~4-5 doublings, model-specific) | 0.0445 | 0.934 | 0.0572 | -0.553 | 0.0794
in vitro model: cholesterol 0.05 mM, time point: constant (~7 days, model-specific) | 0.156 | 0.718 | -0.52 | – | -0.0866
in vitro model: cholesterol 0.05 mM, time point: terminal (~4-5 doublings, model-specific) | 0.107 | 0.929 | -0.0542 | 0.274 | -0.162
in vitro model: cholesterol-high 0.2 mM, time point: constant (~7 days, model-specific) | 0.109 | 0.966 | -0.254 | -0.688 | -0.499
in vitro model: cholesterol-high 0.2 mM, time point: terminal (~4-5 doublings, model-specific) | 0.103 | 1 | 0.0666 | 0.0759 | -0.762
in vitro model: dormancy (butyrate + nitrate, low O2), time point: constant (~7 days, model-specific) | 0.0497 | 0.908 | 0.552 | 0.666 | 0.107
in vitro model: dormancy (butyrate + nitrate, low O2), time point: terminal (~4-5 doublings, model-specific) | 0.0324 | 0.979 | 0.585 | 0.484 | -0.13
in vitro model: standard 7H9 glycerol, time point: constant = terminal | 0.0541 | 0.927 | 0.266 | 0.154 | -0.0203
in vitro model: valerate, time point: constant (~7 days, model-specific) | 0.064 | 0.849 | 0.063 | – | 0.119
in vitro model: valerate, time point: terminal (~4-5 doublings, model-specific) | 0.0448 | 0.935 | 0.198 | 0.078 | 0.0691

CC(=O)NC[C@H]1CN(c2ccc(N3CCOCC3)c(F)c2)C(=O)O1 [linezolid] + CO[C@H]1/C=C/O[C@@]2(C)Oc3c(C)c(O)c4c(O)c(c(/C=N/N5CCN(C)CC5)c(O)c4c3C2=O)NC(=O)/C(C)=C\C=C\[C@H](C)[C@H](O)[C@@H](C)[C@@H](O)[C@@H](C)[C@H](OC(C)=O)[C@@H]1C [rifampicin]
Conditions | AUC25, [5] | Einf, [1] | FIC50, [2] | FIC90, [3] | GRinf, [4]
in vitro model: acidic pH 5.7, time point: constant (~7 days, model-specific) | 0.0878 | 0.902 | 0.204 | – | -0.289
in vitro model: acidic pH 5.7, time point: terminal (~4-5 doublings, model-specific) | 0.0656 | 0.983 | 0.31 | 0.0747 | -0.211
in vitro model: intracellular J774, time point: constant = terminal | – | 0.955 | – | -0.706 | -0.24

Conditions | AUC25, [5] | Einf, [1] | FIC50, [2] | FIC90, [3] | GRinf, [4]
in vitro model: butyrate, time point: constant (~7 days, model-specific) | 0.078 | 0.87 | 0.117 | – | 0.146
in vitro model: butyrate, time point: terminal (~4-5 doublings, model-specific) | 0.0601 | 0.938 | -0.0786 | -0.707 | 0.11
in vitro model: cholesterol 0.05 mM, time point: constant (~7 days, model-specific) | 0.154 | 0.725 | -0.622 | – | -0.00382
in vitro model: cholesterol 0.05 mM, time point: terminal (~4-5 doublings, model-specific) | 0.13 | 0.935 | -0.194 | -0.403 | -0.175
in vitro model: cholesterol-high 0.2 mM, time point: constant (~7 days, model-specific) | 0.101 | 0.997 | -0.0412 | -0.846 | -0.295
in vitro model: cholesterol-high 0.2 mM, time point: terminal (~4-5 doublings, model-specific) | 0.0937 | 1 | 0.555 | -0.0135 | -0.687
in vitro model: dormancy (butyrate + nitrate, low O2), time point: constant (~7 days, model-specific) | 0.0704 | 0.905 | 0.505 | 0.314 | 0.177
in vitro model: dormancy (butyrate + nitrate, low O2), time point: terminal (~4-5 doublings, model-specific) | 0.0353 | 0.969 | 0.176 | 0.0537 | -0.0276
in vitro model: standard 7H9 glycerol, time point: constant = terminal | 0.0527 | 0.885 | 0.284 | – | 0.156
in vitro model: valerate, time point: constant (~7 days, model-specific) | 0.0582 | 0.865 | 0.191 | – | 0.0036
in vitro model: valerate, time point: terminal (~4-5 doublings, model-specific) | 0.0309 | 0.945 | 0.171 | -0.411 | 0.00264

CC(=O)NC[C@H]1CN(c2ccc(N3CCOCC3)c(F)c2)C(=O)O1 [linezolid] + COc1c(N2C[C@@H]3CCCN[C@@H]3C2)c(F)cc2c(=O)c(C(=O)O)cn(C3CC3)c12 [moxifloxacin]
Conditions | AUC25, [5] | Einf, [1] | FIC50, [2] | FIC90, [3] | GRinf, [4]
in vitro model: acidic pH 5.7, time point: constant (~7 days, model-specific) | 0.144 | 0.799 | -0.0102 | – | -0.581
in vitro model: acidic pH 5.7, time point: terminal (~4-5 doublings, model-specific) | 0.102 | 0.963 | 0.872 | 0.52 | -0.271
in vitro model: intracellular J774, time point: constant = terminal | – | 0.909 | – | 0.463 | -0.14

Conditions | AUC25, [5] | Einf, [1] | FIC50, [2] | FIC90, [3] | GRinf, [4]
in vitro model: butyrate, time point: constant (~7 days, model-specific) | 0.0878 | 0.885 | 0.397 | 1.22 | 0.0908
in vitro model: butyrate, time point: terminal (~4-5 doublings, model-specific) | 0.0618 | 0.939 | 0.323 | 0.392 | 0.0886
in vitro model: cholesterol 0.05 mM, time point: constant (~7 days, model-specific) | 0.124 | 0.679 | -0.444 | – | -0.0664
in vitro model: cholesterol 0.05 mM, time point: terminal (~4-5 doublings, model-specific) | 0.137 | 0.938 | 0.0528 | -0.309 | -0.215
in vitro model: cholesterol-high 0.2 mM, time point: constant (~7 days, model-specific) | 0.123 | 0.95 | -0.129 | 0.814 | -0.546
in vitro model: cholesterol-high 0.2 mM, time point: terminal (~4-5 doublings, model-specific) | 0.125 | 1 | -0.211 | 0.433 | -0.844
in vitro model: dormancy (butyrate + nitrate, low O2), time point: constant (~7 days, model-specific) | 0.0537 | 0.914 | 0.869 | 0.521 | 0.139
in vitro model: dormancy (butyrate + nitrate, low O2), time point: terminal (~4-5 doublings, model-specific) | 0.0589 | 0.964 | 0.671 | 0.922 | 0.061
in vitro model: standard 7H9 glycerol, time point: constant = terminal | 0.0831 | 0.955 | 0.52 | 0.972 | -0.197
in vitro model: valerate, time point: constant (~7 days, model-specific) | 0.11 | 0.856 | 0.339 | – | 0.0191
in vitro model: valerate, time point: terminal (~4-5 doublings, model-specific) | 0.0688 | 0.932 | 0.36 | 0.679 | 0.0477
